The numbers were not newly measured in patent US20220395469A1, “TRANSDERMAL DRUG DELIVERY SYSTEM FOR KETAMINE” (GUANGZHOU DAZHOU BIOMEDICINE LTD., priority 2017, published 2022), which cites them from elsewhere.

The subject of one data set is NMDA receptor. The settings on record: in vitro.
Assay in data set [1]: not given
The source holds these as a separate data set.

[2] abbreviates: three-compartment model, 70-kg human (Fanta et al.).

For the compound `CN[C@@]1(c2ccccc2Cl)CCCCC1=O` [R-ketamine], the “psychotomimetic side effects and abuse liability” value (Yang et al.) is “free of psychotomimetic side effects and abuse liability”. Moreover, the antidepressant effectiveness result (animal model studies, versus S-ketamine (Yang et al.)) is recorded as “more effective as an antidepressant than S-ketamine”.

On to `CN[C@]1(c2ccccc2Cl)CCCCC1=O` [S-ketamine], for which, in the data set on NMDA receptor, the “affinity on NMDA receptor binding relative to R-ketamine” value is about 4 fold.

Regarding `CNC1(c2ccccc2Cl)CCCCC1=O` (centres unmarked) [ketamine], the absolute oral bioavailability in data set [1] (in humans) is on record as 10-20%. For the same compound, the “systemic (primarily hepatic) clearance” value in data set [1] (in vivo) is “about 19 ml/min·kg”. In data set [1] (setting [2]), the V1 is 133 L; the clearance (as a rule, the volume of plasma or blood freed of the substance per unit of time) is 79.8 L/h; the “micro constant k12” value is 0.174 h⁻¹; the “micro constant k13” value was 1.18 h⁻¹. Further, in data set [1] (setting [2]), the “micro constant k21” value is 0.124 h⁻¹ and the “micro constant k31” value is 1.59 h⁻¹.
